The target of test [1] is T1, DNA topoisomerase 1 (Homo sapiens) (UniProt P11387).
T1 sequence (whole entry): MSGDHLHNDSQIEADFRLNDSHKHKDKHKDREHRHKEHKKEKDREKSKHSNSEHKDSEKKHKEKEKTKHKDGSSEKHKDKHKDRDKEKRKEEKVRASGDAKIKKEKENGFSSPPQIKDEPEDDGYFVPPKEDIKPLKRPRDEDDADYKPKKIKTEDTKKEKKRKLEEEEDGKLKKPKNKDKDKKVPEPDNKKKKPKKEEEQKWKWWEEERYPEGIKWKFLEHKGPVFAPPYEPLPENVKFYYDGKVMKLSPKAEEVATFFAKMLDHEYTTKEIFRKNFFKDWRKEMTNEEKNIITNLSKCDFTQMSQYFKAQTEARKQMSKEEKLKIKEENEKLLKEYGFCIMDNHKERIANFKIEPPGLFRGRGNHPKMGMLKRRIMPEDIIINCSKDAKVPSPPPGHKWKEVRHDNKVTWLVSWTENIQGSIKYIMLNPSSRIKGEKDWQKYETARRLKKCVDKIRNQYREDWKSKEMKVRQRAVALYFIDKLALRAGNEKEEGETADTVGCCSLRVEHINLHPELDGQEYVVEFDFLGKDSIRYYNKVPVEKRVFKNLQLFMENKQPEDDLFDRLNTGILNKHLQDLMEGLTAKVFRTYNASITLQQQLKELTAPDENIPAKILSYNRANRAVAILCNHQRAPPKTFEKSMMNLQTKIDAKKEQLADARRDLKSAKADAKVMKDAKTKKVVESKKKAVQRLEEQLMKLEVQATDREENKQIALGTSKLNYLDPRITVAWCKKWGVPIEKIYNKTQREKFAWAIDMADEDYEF
Put plainly: Inhibition of human recombinant DNA topoisomerase 1 assessed as reduction in enzyme-mediated relaxation of supercoiled pBR322 plasmid DNA at 100 uM in presence of 0.1% BSA by ethidium bromide staining based gel electrophoresis and UV spectroscopy relative to camptothecin.

The species entered for test [2] is Homo sapiens. The experiment in a line: Inhibition of human recombinant DNA topoisomerase 2 assessed as reduction in enzyme-mediated relaxation of supercoiled pBR322 plasmid DNA at 20 uM in presence of 0.1% BSA by ethidium bromide staining based gel electrophoresis and UV spectroscopy relative to etoposide.
The test system of a further test is HeLa. Put plainly: Antiproliferative activity against human HeLa cells after 72 hrs by CCK8 assay. In kind it is functional, cell-based.
For test [3], the species on record is Homo sapiens. The experiment in a line: Inhibition of human recombinant DNA topoisomerase 2 assessed as reduction in enzyme-mediated relaxation of supercoiled pBR322 plasmid DNA at 100 uM in presence of 0.1% BSA by ethidium bromide staining based gel electrophoresis and UV spectroscopy relative to etoposide.
The next test deals with HCT-15. The experiment in a line: Antiproliferative activity against human HCT15 cells after 72 hrs by CCK8 assay. The class given is functional, cell-based. Particulars: HCT-15, 72 h.
A further test deals with T47D. Put plainly: Antiproliferative activity against human T47D cells after 72 hrs by CCK8 assay. The class given is functional, cell-based.
For test [4], the target named is T1, DNA topoisomerase 1 (Homo sapiens). Put plainly: Inhibition of human recombinant DNA topoisomerase 1 assessed as reduction in enzyme-mediated relaxation of supercoiled pBR322 plasmid DNA at 100 uM in presence of 0.1% BSA by ethidium bromide staining based gel electrophoresis and UV spectroscopy.
The species entered for test [5] is Homo sapiens. The experiment in a line: Inhibition of human recombinant DNA topoisomerase 2 assessed as reduction in enzyme-mediated relaxation of supercoiled pBR322 plasmid DNA at 20 uM in presence of 0.1% BSA by ethidium bromide staining based gel electrophoresis and UV spectroscopy.
For test [6], the species on record is Homo sapiens. Put plainly: Inhibition of human recombinant DNA topoisomerase 2 assessed as reduction in enzyme-mediated relaxation of supercoiled pBR322 plasmid DNA at 100 uM in presence of 0.1% BSA by ethidium bromide staining based gel electrophoresis and UV spectroscopy.

Counter-ions that a name gives are not always drawn.

Turning to `Clc1cccc(-c2cc(-c3ccc(Cl)o3)c3oc4ccccc4c3n2)c1`, the results for the fold change (FC) (in test [1]; in the test listed under Homo sapiens [2]; in the test filed under Homo sapiens [3]) were 1.15, 1.13 and 1.86, respectively. In addition, the IC50 in the test with HeLa was 18.2 µM; in the test on HCT-15 it was 5.47 µM; with T47D, 7.47 µM. The inhibition in [4] was found to be 100%; in the test listed under Homo sapiens [5], 35.5%; in the test listed under Homo sapiens [6], 97.3%.

Regarding `Clc1ccccc1-c1cc(-c2cccs2)c2oc3ccccc3c2n1`, the fold change (FC) in [1] amounted to 1.08; in the test filed under Homo sapiens [2], 0.29; in the test filed under Homo sapiens [3] it was 0.97. The IC50 with HeLa is 21.7 µM; in the test with HCT-15 it was 16.1 µM; in the test on T47D it was above 50 µM. Also, the results for the inhibition (in [4]; in the test listed under Homo sapiens [5]; in the test filed under Homo sapiens [6]) were 93.4%, 10.8% and 64.1%, respectively.

Take `Clc1ccccc1-c1cc(-c2ccccc2)c2oc3ccccc3c2n1`: the fold change (FC) worked out at 0.38 in test [1], 0.19 in the test listed under Homo sapiens [2] and 0.88 in the test filed under Homo sapiens [3]. Moreover, the IC50 with HeLa came to 21.7 µM; in the test on HCT-15, 19.4 µM; in the test with T47D it was 19.5 µM. For the same compound, the values for the inhibition (in [4]; in the test listed under Homo sapiens [5]; in the test listed under Homo sapiens [6]) were 33%, 6.9% and 58.2%, respectively.

As for `Clc1ccc(-c2cc(-c3ccoc3)c3oc4ccccc4c3n2)cc1`, the fold change (FC) in test [1] was 0.95; in the test filed under Homo sapiens [2], 2.61; in the test filed under Homo sapiens [3] it was 1.7. For the same compound, the results for the IC50 in the test with HeLa, in the test on HCT-15 and in the test with T47D were 16.6 µM, 38.6 µM and 18.5 µM, respectively. The inhibition in test [4] was 86.5%; in the test listed under Homo sapiens [5], 82.1%; in the test listed under Homo sapiens [6], 88.7%.

Take `CC[C@@]1(O)C(=O)OCc2c1cc1n(c2=O)Cc2cc3ccccc3nc2-1` [CAMPTOTHECIN]: the IC50 is 2.62 µM with HeLa and 2.31 µM in the test on T47D.

As to `COc1cc([C@@H]2c3cc4c(cc3[C@@H](O[C@@H]3O[C@@H]5CO[C@@H](C)O[C@H]5[C@H](O)[C@H]3O)[C@H]3COC(=O)[C@H]23)OCO4)cc(OC)c1O` [ETOPOSIDE], the IC50 is 4.12 µM in the test with HeLa and 9.27 µM in the test on HCT-15. Moreover, the inhibition is 31.5 to 36.8% in the test listed under Homo sapiens [5] and 52.3 to 66% in the test filed under Homo sapiens [6].

Take `COc1cccc2c1C(=O)c1c(O)c3c(c(O)c1C2=O)C[C@@](O)(C(=O)CO)C[C@@H]3O[C@H]1C[C@H](N)[C@H](O)[C@H](C)O1` [DOXORUBICIN HYDROCHLORIDE]: the IC50 with HeLa was 2.77 µM; in the test with HCT-15, 0.94 µM; in the test on T47D, 1.29 µM.

With `Clc1cccc(-c2cc(-c3ccccc3)c3oc4ccccc4c3n2)c1`, the results for the fold change (FC) (in test [1]; in the test listed under Homo sapiens [2]; in the test listed under Homo sapiens [3]) were 0.93, 0.4 and 1.26, respectively. Further, the results for the IC50 with HeLa, with HCT-15 and with T47D were 37.2 µM, above 50 µM and 33.6 µM, respectively. In addition, the inhibition in test [4] is 80.6%; in the test listed under Homo sapiens [5], 14.8%; in the test listed under Homo sapiens [6] it was 83%.

Take `Clc1ccc(-c2cc(-c3ccccc3)c3oc4ccccc4c3n2)cc1`: the fold change (FC) worked out at 1.15 in [1], 0.48 in the test listed under Homo sapiens [2] and 1.19 in the test filed under Homo sapiens [3]. Further, the IC50 in the test with HeLa, with HCT-15 and in the test on T47D was above 50 µM throughout. Besides, the inhibition is 100% in test [4], 17.6% in the test listed under Homo sapiens [5] and 78.2% in the test filed under Homo sapiens [6].

On to `Clc1ccc(-c2cc(-c3ccsc3)c3oc4ccccc4c3n2)cc1`, for which the results for the fold change (FC) (in test [1]; in the test listed under Homo sapiens [2]; in the test filed under Homo sapiens [3]) were 0.92, 0.32 and 1.83, respectively. Also, the IC50 with HeLa, in the test on HCT-15 and in the test with T47D was above 50 µM each time. In addition, the results for the inhibition (in [4]; in the test filed under Homo sapiens [5]; in the test listed under Homo sapiens [6]) were 79.9%, 10.1% and 95.7%, respectively.

As to `Clc1ccc(-c2cc(-c3cccs3)c3oc4ccccc4c3n2)cc1`, the fold change (FC) in [1] was 1.15; in the test listed under Homo sapiens [2] it was 0.41; in the test listed under Homo sapiens [3] it was 0.89. In addition, the IC50 in the test with HeLa, in the test on HCT-15 and in the test on T47D was above 50 µM throughout. The inhibition in [4] stood at 100%; in the test listed under Homo sapiens [5], 15.1%; in the test listed under Homo sapiens [6] it was 58.5%.

`Clc1ccccc1-c1cc(-c2ccco2)c2oc3ccccc3c2n1`: the fold change (FC) is 0.99 in test [1], 0.14 in the test filed under Homo sapiens [2] and 0.9 in the test filed under Homo sapiens [3]. Moreover, the IC50 with HeLa is above 50 µM; with HCT-15, 21.7 µM; in the test with T47D, above 50 µM. In addition, the results for the inhibition (in [4]; in the test filed under Homo sapiens [5]; in the test listed under Homo sapiens [6]) were 86.1%, 5.1% and 59.4%, respectively.

Take `Clc1ccc(-c2cc(-c3ccc(Cl)o3)c3oc4ccccc4c3n2)cc1`: the fold change (FC) in test [1] is 0.81; in the test filed under Homo sapiens [2], 2.34; in the test listed under Homo sapiens [3], 1.91. Also, the IC50 with HeLa is 16.4 µM; in the test on HCT-15, above 50 µM; with T47D, 11.4 µM. The inhibition in [4] was determined as 98.9%; in the test listed under Homo sapiens [5], 73.7%; in the test listed under Homo sapiens [6] it was 100%.

Consider `Clc1ccccc1-c1cc(-c2ccsc2)c2oc3ccccc3c2n1`, for which the fold change (FC) in test [1] was 1.15; in the test listed under Homo sapiens [2] it was 2.33; in the test listed under Homo sapiens [3], 1.52. Further, the IC50 was above 50 µM in the test with HeLa, 10.6 µM with HCT-15 and 25.5 µM with T47D. The inhibition in test [4] came to 100%; in the test filed under Homo sapiens [5], 85.8%; in the test listed under Homo sapiens [6], 100%.

With `Clc1ccc(-c2cc(-c3ccccc3Cl)nc3c2oc2ccccc23)o1`, the results for the fold change (FC) (in test [1]; in the test listed under Homo sapiens [2]; in the test filed under Homo sapiens [3]) were 1.15, 0.94 and 1.64, respectively. In addition, the IC50 in the test on HeLa, with HCT-15 and in the test on T47D was above 50 µM throughout. For the same compound, the inhibition in [4] came out at 100%; in the test listed under Homo sapiens [5], 29.5%; in the test listed under Homo sapiens [6] it was 86%.

For `Clc1cccc(-c2cc(-c3cccs3)c3oc4ccccc4c3n2)c1`, the figures for the fold change (FC) (in test [1]; in the test listed under Homo sapiens [2]; in the test filed under Homo sapiens [3]) were 0.98, 0.47 and 1.29, respectively. For the same compound, the IC50 was above 50 µM with HeLa, 19.3 µM in the test with HCT-15 and 17.2 µM in the test with T47D. Besides, the inhibition was 85.1% in test [4], 17.3% in the test filed under Homo sapiens [5] and 85.3% in the test filed under Homo sapiens [6].

In the case of `Clc1ccc(-c2cc(-c3ccco3)c3oc4ccccc4c3n2)cc1`, the fold change (FC) in [1] is 1.15; in the test listed under Homo sapiens [2] it was 2.2; in the test listed under Homo sapiens [3], 1.46. Also, the values for the IC50 in the test with HeLa, with HCT-15 and in the test with T47D were 36.5 µM, above 50 µM and 13.2 µM, respectively. The inhibition in [4] was 100%; in the test filed under Homo sapiens [5] it was 80.9%; in the test filed under Homo sapiens [6], 96.2%.

For the compound `Clc1ccccc1-c1cc(-c2ccoc2)c2oc3ccccc3c2n1`, the values for the fold change (FC) (in test [1]; in the test listed under Homo sapiens [2]; in the test listed under Homo sapiens [3]) were 0.63, 0.46 and 1.59, respectively. Also, the IC50 with HeLa was found to be 13.3 µM; in the test with HCT-15, 20.6 µM; in the test on T47D, 19.4 µM. In addition, the inhibition in [4] is 54.6%; in the test filed under Homo sapiens [5] it was 14.6%; in the test filed under Homo sapiens [6], 83.2%.

The values above are taken from ChEMBL document CHEMBL4052690, “2-Chlorophenyl-substituted benzofuro[3,2-b]pyridines with enhanced topoisomerase inhibitory activity: The role of the chlorine substituent” (Bioorg Med Chem Lett, 2017).
